These are literature values, as cited in patent US11331329B2, “Fucosylated oligosaccharides for prevention of coronavirus infection” (Glycosyn LLC, priority 2020, dated 2022).

The conditions of this data set: oral.

Turning to 2′-Fucosyllactose [2′-FL], the toxicity result (natural component of human milk) was “non-toxic”. For the same substance, the “high doses that may lead to mild gut discomfort and a reversible osmotic diarrhea” value (adult) is listed as more than 10 g per day.
